From ChEMBL document CHEMBL6115025, “Discovery of Novel, Potent, Orally Bioavailable and Efficacious, Hypoxia-Inducible Factor Prolyl Hydroxylase Inhibitors for Hematopoietic Stem Cell Mobilization” (J Med Chem, 2025)

What was measured:
Egl nine homolog 1 = Egl nine homolog 1 (Homo sapiens, UniProt Q9GZT9); assay: Inhibition of PHD2 (unknown origin) using [1-14C]alphaKG as substrate assessed as substrate decarboxylation by measuring 14CO2 production incubated for 2 hrs by microplate reader analysis
[1] = target: Voltage-gated inwardly rectifying potassium channel KCNH2 (Homo sapiens, UniProt Q12809); assay: Inhibition of human ERG upto 100 uM; format: toxicity
Chain of Voltage-gated inwardly rectifying potassium channel KCNH2 (Q12809 whole entry): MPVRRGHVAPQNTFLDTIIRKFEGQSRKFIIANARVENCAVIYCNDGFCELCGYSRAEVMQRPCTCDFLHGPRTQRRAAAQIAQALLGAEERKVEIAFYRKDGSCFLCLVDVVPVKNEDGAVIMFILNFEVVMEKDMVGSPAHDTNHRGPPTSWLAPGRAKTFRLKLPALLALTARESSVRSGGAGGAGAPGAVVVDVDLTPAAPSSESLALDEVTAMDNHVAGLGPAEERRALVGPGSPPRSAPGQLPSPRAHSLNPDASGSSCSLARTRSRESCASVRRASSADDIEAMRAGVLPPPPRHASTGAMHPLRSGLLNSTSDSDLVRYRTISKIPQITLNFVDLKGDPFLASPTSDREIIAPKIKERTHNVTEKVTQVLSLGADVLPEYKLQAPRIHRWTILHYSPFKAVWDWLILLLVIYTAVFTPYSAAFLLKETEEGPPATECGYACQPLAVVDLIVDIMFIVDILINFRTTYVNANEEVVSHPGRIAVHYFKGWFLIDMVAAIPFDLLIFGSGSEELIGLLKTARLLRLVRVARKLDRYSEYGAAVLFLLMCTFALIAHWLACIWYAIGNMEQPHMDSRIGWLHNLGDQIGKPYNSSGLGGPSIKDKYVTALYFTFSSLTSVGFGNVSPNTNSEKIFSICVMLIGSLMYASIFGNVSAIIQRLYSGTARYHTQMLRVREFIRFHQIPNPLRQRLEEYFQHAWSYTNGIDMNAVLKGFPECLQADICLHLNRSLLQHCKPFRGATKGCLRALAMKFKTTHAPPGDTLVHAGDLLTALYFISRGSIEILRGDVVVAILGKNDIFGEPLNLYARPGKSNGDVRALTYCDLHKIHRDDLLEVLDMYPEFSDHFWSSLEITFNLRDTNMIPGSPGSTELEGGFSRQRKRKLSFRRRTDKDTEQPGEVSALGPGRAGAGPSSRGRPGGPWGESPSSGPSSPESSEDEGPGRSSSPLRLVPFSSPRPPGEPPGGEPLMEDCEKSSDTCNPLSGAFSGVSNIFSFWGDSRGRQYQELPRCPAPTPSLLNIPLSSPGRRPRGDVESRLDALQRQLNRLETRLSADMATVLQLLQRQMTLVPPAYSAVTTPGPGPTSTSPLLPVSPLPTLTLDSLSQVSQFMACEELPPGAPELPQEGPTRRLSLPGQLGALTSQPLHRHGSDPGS

Chain of Egl nine homolog 1 (Q9GZT9 whole entry): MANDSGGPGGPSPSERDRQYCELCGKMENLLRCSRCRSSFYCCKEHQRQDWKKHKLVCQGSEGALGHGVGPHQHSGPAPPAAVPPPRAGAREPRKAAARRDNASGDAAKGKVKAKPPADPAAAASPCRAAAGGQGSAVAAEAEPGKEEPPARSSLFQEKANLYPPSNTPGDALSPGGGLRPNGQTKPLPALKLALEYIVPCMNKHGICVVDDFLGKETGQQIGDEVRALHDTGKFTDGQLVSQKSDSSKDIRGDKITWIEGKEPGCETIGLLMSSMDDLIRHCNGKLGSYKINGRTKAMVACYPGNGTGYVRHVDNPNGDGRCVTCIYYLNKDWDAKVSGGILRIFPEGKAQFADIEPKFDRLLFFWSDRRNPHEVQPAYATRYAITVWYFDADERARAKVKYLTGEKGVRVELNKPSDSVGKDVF

IC50 (Egl nine homolog 1) | SMILES | inhibition (INH) [1]
200 nM | O=C(NCc1ccncc1)c1ncc2c(=O)n(Cc3ccccc3)ccc2c1O | 
 | O=C(NCc1ccnnc1)c1ncc2c(=O)n(C3CCCCC3)ccc2c1O | Not_active
